Experimental data published in ChEMBL document CHEMBL1201862, “PubChem BioAssay data set” (2004).
Calls of active or inactive are those of the source.

How the values were obtained:
Beta-galactosidase = Beta-galactosidase (Escherichia coli, UniProt Q8VNN2); assay: PubChem AID 485352; assay type: functional
[1] = target: T1, Type-1 angiotensin II receptor (Homo sapiens, UniProt P30556); assay: antagonism of angiotensin II type 1 receptor – cell-based, uHTS hits, selectivity assay for APJ receptor antagonist project, dose response (AID 463214); assay type: functional;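 also: antagonist potency against angiotensin II stimulated AT1 response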
T1 sequence (P30556 whole entry): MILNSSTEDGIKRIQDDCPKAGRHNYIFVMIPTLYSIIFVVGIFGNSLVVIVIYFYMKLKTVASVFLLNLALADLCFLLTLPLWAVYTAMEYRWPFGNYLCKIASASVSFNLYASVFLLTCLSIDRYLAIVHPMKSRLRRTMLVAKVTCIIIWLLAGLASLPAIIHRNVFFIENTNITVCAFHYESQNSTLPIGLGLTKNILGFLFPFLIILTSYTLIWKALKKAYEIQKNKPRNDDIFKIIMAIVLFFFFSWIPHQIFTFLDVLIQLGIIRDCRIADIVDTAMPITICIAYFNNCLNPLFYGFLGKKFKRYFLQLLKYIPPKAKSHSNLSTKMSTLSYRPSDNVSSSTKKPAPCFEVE

[2] = target: Beta-2 adrenergic receptor (Homo sapiens, UniProt P07550); assay: ADRB2 activation measured by internalization – cell-based, FAP fluorogen, flow cytometry, cherry pick 1, dose response (AID 588763); assay type: functional
Chain of Beta-2 adrenergic receptor (P07550 whole entry): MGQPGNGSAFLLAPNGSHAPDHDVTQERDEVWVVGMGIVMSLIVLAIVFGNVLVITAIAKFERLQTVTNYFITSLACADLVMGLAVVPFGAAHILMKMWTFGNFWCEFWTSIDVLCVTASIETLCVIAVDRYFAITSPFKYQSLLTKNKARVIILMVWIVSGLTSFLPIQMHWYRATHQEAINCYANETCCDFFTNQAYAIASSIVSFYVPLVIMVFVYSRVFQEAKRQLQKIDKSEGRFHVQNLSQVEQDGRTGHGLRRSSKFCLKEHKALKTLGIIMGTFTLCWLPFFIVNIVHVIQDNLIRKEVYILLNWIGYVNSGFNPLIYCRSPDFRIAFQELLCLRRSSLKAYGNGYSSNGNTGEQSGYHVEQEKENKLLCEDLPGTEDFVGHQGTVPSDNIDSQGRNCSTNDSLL

[3] = target: T2, Sentrin-specific protease 8 (Homo sapiens, UniProt Q96LD8); assay: inhibition of human SENP8 cleavage activity – biochemical, luminescence, SAR follow-up (AID 504501); assay type: functional
T2 sequence (Q96LD8 whole entry): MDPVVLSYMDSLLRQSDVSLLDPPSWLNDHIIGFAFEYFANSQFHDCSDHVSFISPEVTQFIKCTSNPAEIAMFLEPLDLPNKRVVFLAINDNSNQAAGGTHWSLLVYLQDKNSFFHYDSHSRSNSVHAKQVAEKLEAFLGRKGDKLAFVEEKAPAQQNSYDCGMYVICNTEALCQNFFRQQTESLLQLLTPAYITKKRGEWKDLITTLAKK

Caspase-3 [4] = target: T3, Caspase-3 (Homo sapiens, UniProt P42574); assay: SAR Analysis of small molecule inhibitors of Sentrin-specific proteases (SENPs) using a Caspase-3 Selectivity assay. [Related pubchem assays (depositor defined):AID2540, AID2599, AID434973, AID489001]; assay type: functional
T3 sequence (P42574 whole entry): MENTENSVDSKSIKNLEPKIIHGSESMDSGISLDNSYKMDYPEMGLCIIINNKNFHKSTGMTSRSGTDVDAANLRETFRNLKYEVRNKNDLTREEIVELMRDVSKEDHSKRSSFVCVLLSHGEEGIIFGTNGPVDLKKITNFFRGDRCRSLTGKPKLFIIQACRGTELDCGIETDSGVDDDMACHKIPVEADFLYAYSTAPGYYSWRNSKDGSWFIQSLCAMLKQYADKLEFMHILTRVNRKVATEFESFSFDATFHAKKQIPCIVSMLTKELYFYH

[5] = target: T4, Sentrin-specific protease 6 (Homo sapiens, UniProt Q9GZR1); assay: SAR Analysis of small molecule inhibitors of Sentrin-specific protease 6 (SENP6) using a Luminescent assay. [Related pubchem assays (depositor defined):AID2582, AID2599]; assay type: functional
T4 sequence (Q9GZR1 whole entry): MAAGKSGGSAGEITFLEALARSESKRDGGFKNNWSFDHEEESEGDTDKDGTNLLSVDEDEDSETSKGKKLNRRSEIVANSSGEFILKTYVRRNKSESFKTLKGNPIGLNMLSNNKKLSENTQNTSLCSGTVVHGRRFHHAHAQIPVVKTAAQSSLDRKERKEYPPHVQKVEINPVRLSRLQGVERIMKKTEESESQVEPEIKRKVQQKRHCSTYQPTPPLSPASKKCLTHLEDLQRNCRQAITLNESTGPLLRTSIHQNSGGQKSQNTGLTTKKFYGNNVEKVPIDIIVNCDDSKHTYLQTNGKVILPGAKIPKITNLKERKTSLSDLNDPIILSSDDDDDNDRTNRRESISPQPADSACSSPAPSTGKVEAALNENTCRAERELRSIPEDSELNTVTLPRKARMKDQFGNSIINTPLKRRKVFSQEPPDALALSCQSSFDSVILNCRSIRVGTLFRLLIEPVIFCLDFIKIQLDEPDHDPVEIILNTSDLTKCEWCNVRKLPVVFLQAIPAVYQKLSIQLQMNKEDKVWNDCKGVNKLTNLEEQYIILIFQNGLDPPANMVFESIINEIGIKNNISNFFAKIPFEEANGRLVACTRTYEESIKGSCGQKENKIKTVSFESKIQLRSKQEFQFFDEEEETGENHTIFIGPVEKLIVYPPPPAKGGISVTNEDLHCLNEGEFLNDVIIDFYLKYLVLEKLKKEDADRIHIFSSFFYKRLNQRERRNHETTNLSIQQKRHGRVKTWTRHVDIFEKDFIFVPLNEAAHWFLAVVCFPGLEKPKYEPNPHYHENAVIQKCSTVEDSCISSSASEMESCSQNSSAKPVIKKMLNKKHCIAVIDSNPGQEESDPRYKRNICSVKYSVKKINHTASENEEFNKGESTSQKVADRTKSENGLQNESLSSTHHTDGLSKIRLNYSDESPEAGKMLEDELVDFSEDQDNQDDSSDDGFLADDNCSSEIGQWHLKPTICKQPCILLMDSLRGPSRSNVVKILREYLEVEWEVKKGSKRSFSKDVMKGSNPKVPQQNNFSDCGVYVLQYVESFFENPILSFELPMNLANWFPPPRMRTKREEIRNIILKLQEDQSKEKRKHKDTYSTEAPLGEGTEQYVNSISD

[6] = target: T5, Sentrin-specific protease 7 (Homo sapiens, UniProt Q9BQF6); assay: inhibition of human SENP7 cleavage activity – biochemical, luminescence, SAR follow-up (AID 504497); assay type: functional
T5 sequence (Q9BQF6 whole entry): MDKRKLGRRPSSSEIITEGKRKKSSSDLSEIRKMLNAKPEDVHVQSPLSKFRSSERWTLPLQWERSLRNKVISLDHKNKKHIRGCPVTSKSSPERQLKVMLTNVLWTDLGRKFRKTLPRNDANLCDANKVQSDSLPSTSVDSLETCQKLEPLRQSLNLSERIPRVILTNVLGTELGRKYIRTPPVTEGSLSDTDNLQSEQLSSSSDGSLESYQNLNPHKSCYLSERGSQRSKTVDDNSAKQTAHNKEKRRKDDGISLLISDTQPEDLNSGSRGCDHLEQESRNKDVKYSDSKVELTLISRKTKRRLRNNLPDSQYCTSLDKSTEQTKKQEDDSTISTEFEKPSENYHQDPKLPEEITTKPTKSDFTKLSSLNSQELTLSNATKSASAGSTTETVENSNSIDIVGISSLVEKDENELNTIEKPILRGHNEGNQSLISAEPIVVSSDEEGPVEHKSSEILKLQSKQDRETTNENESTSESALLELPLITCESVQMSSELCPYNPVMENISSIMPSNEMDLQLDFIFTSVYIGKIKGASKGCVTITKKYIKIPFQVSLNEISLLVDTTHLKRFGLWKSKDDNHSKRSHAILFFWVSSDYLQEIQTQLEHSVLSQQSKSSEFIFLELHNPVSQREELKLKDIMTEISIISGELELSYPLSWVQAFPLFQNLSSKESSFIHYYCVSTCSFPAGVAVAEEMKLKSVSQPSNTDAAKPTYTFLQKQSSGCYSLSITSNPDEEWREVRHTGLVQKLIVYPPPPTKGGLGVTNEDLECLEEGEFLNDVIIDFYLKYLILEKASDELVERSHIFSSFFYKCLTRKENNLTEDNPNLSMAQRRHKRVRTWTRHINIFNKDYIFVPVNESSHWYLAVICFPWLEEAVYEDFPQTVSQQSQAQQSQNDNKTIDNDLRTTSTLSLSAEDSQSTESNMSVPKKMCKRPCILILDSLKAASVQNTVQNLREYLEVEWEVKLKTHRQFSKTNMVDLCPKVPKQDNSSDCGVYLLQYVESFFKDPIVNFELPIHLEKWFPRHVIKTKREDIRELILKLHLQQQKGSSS

P388/ADR = assay: cells; assay type: functional; details: Mus musculus
SN12K1 = assay: cells; assay type: functional; details: Homo sapiens
P388 = assay: cells; assay type: functional; details: Mus musculus
[7] = blockers of HIV-1 envelope-mediated cell-cell fusion – cherry-pick, dose response (AID 652057); assay type: functional, cell-based
[8] = blockers of HIV-1 ZM109 envelope-driven cell-cell fusion – HeLa effector, CEM target cells, luciferase, cherry-pick, dose response (AID 652058); assay type: functional, cell-based;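 also: luciferase signal from HIV-1 Env mediated cell-cell fusion of effector and target cells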
[9] = off-target signal loss in HeLa-CEM21 co-culture – HeLa F-luc CTL cells, cherry-picked, counter-screen for HIV-1 Env fusion inhibitor project, dose response (AID 652040); assay type: functional, cell-based;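 also: potency for signal decrease marking cytotoxic or nonspecific inhibition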
HeLa = assay: ATP-based viability loss in HeLa cells – cell-based, CellTiter-Glo luminescence, cherry-pick samples, cytotoxicity control for MITF activator project, dose response (AID 540259); assay type: functional; details: Homo sapiens
Cytochrome P450 3A4 = Cytochrome P450 3A4 (Homo sapiens, UniProt P08684);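 also: CYP3A4 tested as one member of a cytochrome P450 panel screen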
Chain of Cytochrome P450 3A4 (P08684 whole entry): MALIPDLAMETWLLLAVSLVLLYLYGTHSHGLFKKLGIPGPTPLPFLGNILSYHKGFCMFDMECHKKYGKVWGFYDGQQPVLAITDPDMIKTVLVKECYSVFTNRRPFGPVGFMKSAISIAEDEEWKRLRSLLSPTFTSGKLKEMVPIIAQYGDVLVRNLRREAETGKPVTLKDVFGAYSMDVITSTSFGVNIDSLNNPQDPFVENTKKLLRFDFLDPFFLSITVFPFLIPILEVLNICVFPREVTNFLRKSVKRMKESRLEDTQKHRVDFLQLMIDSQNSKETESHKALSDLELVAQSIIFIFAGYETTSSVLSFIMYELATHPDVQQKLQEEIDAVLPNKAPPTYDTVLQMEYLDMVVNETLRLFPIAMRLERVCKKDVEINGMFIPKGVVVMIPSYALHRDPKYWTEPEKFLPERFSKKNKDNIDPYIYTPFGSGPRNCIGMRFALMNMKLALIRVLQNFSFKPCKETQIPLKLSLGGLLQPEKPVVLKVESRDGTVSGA

[10] = viability of uninfected HEp-2 cells – cell-based, HTS, cytotoxicity control for RSV inhibitor project, dose response (AID 2410); assay type: functional; details: human respiratory syncytial virus
[11] = target: Luciferin 4-monooxygenase (Photinus pyralis, UniProt P08659); assay: Counter Screen for Luciferase-based Assay Positives. [Related pubchem assays: 620, 618, 411 ]
Chain of Luciferin 4-monooxygenase (P08659 whole entry): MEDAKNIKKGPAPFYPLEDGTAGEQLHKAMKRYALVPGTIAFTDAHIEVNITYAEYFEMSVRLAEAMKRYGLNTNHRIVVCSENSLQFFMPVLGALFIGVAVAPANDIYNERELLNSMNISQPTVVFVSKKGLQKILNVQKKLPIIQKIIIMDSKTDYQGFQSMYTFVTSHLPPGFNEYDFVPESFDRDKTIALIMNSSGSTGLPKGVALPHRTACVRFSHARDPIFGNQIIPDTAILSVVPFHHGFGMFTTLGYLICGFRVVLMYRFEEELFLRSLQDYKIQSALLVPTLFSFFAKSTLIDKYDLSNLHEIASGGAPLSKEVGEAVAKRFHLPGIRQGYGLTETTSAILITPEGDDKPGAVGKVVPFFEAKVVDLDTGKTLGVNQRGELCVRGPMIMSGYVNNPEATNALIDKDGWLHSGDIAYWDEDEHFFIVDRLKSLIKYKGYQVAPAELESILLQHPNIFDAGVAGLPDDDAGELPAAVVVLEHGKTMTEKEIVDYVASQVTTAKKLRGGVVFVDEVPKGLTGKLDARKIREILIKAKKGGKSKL

HT-1080 = assay: HT1080 cell viability loss – fluorescence readout (AID 620); assay type: functional, cell-based; details: Homo sapiens
Caspase-3 [12] = target: T3, Caspase-3; assay type: functional
[13] = target: T5, Sentrin-specific protease 7; assay type: functional
[14] = target: T4, Sentrin-specific protease 6; assay type: functional
[15] = target: T2, Sentrin-specific protease 8; assay type: functional
[16] = system: Streptococcus sp. 'group A'; assay: Streptococcus pyogenes SK(-)GAS viability under kanamycin – luminescence, BacTiterGlo, confirmation, counter-screen for streptokinase expression inhibitor project, dose response (AID 1900); assay type: functional, organism-based
Streptococcus = assay: GAS UMAA2166 growth inhibition – luminescence, BacTiterGlo, counter-screen for streptokinase expression inhibitor project, dose response (AID 1915); assay type: functional, organism-based;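 also: potency for reduction of bacterial viability or growth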

Chain of Beta-galactosidase (Q8VNN2 whole entry): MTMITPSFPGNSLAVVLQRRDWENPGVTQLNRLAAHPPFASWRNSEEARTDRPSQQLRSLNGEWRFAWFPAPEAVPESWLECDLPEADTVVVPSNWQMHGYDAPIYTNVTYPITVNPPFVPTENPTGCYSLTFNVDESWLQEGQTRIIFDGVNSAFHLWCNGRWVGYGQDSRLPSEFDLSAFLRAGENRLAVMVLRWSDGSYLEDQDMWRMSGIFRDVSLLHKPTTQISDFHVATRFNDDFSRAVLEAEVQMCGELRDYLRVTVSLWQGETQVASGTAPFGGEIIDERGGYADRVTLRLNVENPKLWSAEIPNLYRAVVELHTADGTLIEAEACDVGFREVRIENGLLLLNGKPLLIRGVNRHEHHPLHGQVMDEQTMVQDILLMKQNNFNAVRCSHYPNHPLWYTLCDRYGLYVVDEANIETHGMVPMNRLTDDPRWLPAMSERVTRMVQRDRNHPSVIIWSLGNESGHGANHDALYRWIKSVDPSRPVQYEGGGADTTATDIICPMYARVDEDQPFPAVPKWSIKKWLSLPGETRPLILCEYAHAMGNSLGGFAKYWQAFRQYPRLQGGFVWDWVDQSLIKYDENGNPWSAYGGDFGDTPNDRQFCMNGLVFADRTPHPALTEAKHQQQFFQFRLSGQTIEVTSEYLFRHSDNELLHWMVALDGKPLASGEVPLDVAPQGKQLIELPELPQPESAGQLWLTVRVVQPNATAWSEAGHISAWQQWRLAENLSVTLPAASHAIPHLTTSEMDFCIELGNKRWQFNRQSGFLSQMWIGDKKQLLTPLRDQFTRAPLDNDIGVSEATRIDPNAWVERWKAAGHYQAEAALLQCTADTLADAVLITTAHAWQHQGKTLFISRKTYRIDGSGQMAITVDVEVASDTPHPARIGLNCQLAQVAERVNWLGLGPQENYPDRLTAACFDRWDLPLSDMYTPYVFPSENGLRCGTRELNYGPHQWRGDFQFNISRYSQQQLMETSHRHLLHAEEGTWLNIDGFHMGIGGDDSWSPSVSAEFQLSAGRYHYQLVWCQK

SMILES: Cc1ccc(N=C2C(=O)Nc3ccc(Br)cc32)cc1
- EC50 (Beta-galactosidase): > 40 µM (inactive)
- IC50 [1]: 7.76 µM (active)

SMILES: COc1ccc([C@H](C)NC[C@H](O)c2ccc(O)c(NC=O)c2)cc1
- EC50 [2]: 0.0108 µM (active)

SMILES: CCc1ccc(-c2nc(/C=C/c3ccc(F)cc3)no2)cc1
- IC50 [3]: > 99 µM (inactive)
- IC50 (Caspase-3 [4]): > 99 µM (inactive)
- IC50 [5]: > 99 µM (inactive)
- IC50 [6]: > 99 µM (inactive)

SMILES: O=C1N=c2ccc(Br)cc2=C1Nc1ccc(-c2nnc3n2CCCCC3)cc1
- EC50 (Beta-galactosidase): > 40 µM (inactive)
- IC50 [1]: 29.4 µM (not active)

SMILES: Nc1ccn(C2OC(COC(=O)C34CC5CC(CC(C5)C3)C4)C(O)C2O)c(=O)n1 (centres undefined)
- GI50 (P388/ADR): 0.889 µM (active)
- GI50 (SN12K1): 4.46 µM (inactive)
- GI50 (P388): 0.506 µM (active)
- AC50 [7]: 0.652 µM (active)
- AC50 [8]: < 0.26 µM (active)
- AC50 [9]: 36.9 µM (active)

SMILES: CCCSc1nc(COC(=O)NC)c(COC(=O)NC)n1C
- GI50 (P388/ADR): 23.8 µM (inactive)
- GI50 (SN12K1): > 100 µM (inactive)
- GI50 (P388): 21.1 µM (inactive)

SMILES: CSc1ccc(CNc2ccc(Cl)cc2)cc1
- AC50 (HeLa): 56.4 µM (active)
- AC50 (Cytochrome P450 3A4): inconclusive

SMILES: c1ccc(CSc2nnnn2-c2cccc3ccccc23)nc1
- EC50 [2]: 1.22 µM (active)

SMILES: C(=N\Nc1ccccc1)/c1cn(Cc2ccccc2)c2ccccc12
- IC50 [3]: > 99 µM (inactive)
- IC50 (Caspase-3 [4]): > 99 µM (inactive)
- IC50 [5]: > 99 µM (inactive)
- IC50 [6]: > 99 µM (inactive)

SMILES: CCCC(=O)Nc1ccc(-c2nc3cc(C)ccc3o2)cc1
- CC50 [10]: 26.7 µM (active)
- EC50 [11]: 0.21 µM (active)
- EC50 (HT-1080): > 50 µM (not active)
- IC50 (Caspase-3 [12]): 23.5 µM (active)
- IC50 [13]: 4.35 µM (active)
- IC50 [14]: 64.7 µM (active)
- IC50 [15]: 45.2 µM (active)

SMILES: COc1cc(NC(=O)Nc2ccc(F)cc2)cc2sc(NC(=O)c3ccccc3)nc12
- IC50 [3]: > 99 µM (inactive)
- IC50 (Caspase-3 [4]): > 99 µM (inactive)
- IC50 [5]: > 99 µM (inactive)
- IC50 [6]: > 99 µM (inactive)

SMILES: c1cc2n(n1)CCN2
- GI50 (P388/ADR): 294 µM (inactive)
- GI50 (SN12K1): 1150 µM (inactive)
- GI50 (P388): 361 µM (inactive)

SMILES: Cc1cccc2sc(NC(=O)c3ccc(NS(=O)(=O)c4cccs4)cc3)nc12
- EC50 [16]: 2.22 µM (active)
- EC50 (Streptococcus): 3.77 µM (active)
- IC50 (Caspase-3 [12]): 36.5 µM (active)
- IC50 [13]: 7.27 µM (active)
- IC50 [14]: 8.6 µM (active)
- IC50 [15]: 11.6 µM (active)

SMILES: N#Cc1ccccc1COC(=O)c1ccc2c(c1)OCCO2
- IC50 (Caspase-3 [12]): 19.9 µM (active)
- IC50 [13]: 8.48 µM (active)
- IC50 [14]: 22.5 µM (active)
- IC50 [15]: 27.5 µM (active)
